Experimental data reported in patent publication US11697646B2, “Triazole N-linked carbamoyl cyclohexyl acids as LPA antagonists” (BRISTOL-MYERS SQUIBB COMPANY, priority 2017, dated 2023).

Target: T1, human LPA1 (Homo sapiens, UniProt Q92633)
T1 construct: expressed in transfected cells; host or cells: Chinese hamster ovary (CHO) cells
Experiment: LPA1 functional antagonist assay (calcium flux)
Type: cell-based
Conditions: CHO cells overexpressing human LPA1; calcium flux induced by 10 nM LPA; read-out: hLPA1 IC50
Description: The effectiveness of compounds of the present invention as LPA1 inhibitors can be determined in an LPA1 functional antagonist assay as follows:
The cells were then equilibrated to room temperature for 30 minutes before the assay. […] IC50 values were determined by fitting data to a 4-parameter logistic equation (GraphPad Prism, San Diego Calif.).

T1 sequence (Q92633 whole entry): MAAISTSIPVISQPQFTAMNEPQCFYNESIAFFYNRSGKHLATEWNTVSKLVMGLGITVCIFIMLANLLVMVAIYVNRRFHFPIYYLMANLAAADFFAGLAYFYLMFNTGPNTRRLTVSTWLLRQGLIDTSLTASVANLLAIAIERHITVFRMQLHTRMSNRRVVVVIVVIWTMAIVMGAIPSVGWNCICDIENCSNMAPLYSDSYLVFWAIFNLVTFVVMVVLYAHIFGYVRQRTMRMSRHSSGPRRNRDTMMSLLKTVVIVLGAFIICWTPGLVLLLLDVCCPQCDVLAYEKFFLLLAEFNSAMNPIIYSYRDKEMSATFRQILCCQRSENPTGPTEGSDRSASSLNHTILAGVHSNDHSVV

Structure (SMILES)	IC50 [nM]
Cc1nc(-c2nnn(C)c2CNC(=O)NCC2CC(F)(F)C2)ccc1O[C@H]1CCC[C@H](C(=O)O)C1 [Example 123, (1S,3S)-3-((6-(5-((3-((3,3-difluorocyclo-butyl)methyl)ureido)methyl)-1-methyl-1H-1,2,3-triazol-4-yl)-2-methylpyridin-3-yl)oxy)cyclohexane-1-carboxylic acid]	929
CCCCNC(=O)NCc1c(-c2ccc(O[C@H]3CCC[C@H](C(=O)O)C3)c(C)n2)nnn1C [Example 124, (1S,3S)-3-((6-(5-((3-butylureido)methyl)-1-methyl-1H-1,2,3-triazol-4-yl)-2-methylpyridin-3-yl)oxy)cyclohexane-1-carboxylic acid]	434
Cc1nc(-c2nnn(C)c2CNC(=O)NCC(C)C)ccc1O[C@H]1CCC[C@H](C(=O)O)C1 [Example 127, (1S,3S)-3-((6-(5-((3-isobutylureido)methyl)-1-methyl-1H-1,2,3-triazol-4-yl)-2-methylpyridin-3-yl)oxy)cyclohexane-1-carboxylic acid]	2270
Cc1nc(-c2nnn(C)c2CNC(=O)N(C)CC(C)C)ccc1O[C@H]1CCC[C@H](C(=O)O)C1 [Example 128, (1S,3S)-3-((6-(5-((3-isobutyl-3-methylureido)methyl)-1-methyl-1H-1,2,3-triazol-4-yl)-2-methylpyridin-3-yl)oxy)cyclohexane-1-carboxylic acid]	273
Cc1nc(-c2nnn(C)c2CNC(=O)N[C@H](C)c2ccccc2)ccc1O[C@H]1CCC[C@H](C(=O)O)C1 [Example 130, (1S,3S)-3-((2-methyl-6-(1-methyl-5-((3-((R)-1-phenylethyl)ureido)methyl)-1H-1,2,3-triazol-4-yl)pyridin-3-yl)oxy)cyclohexane-1-carboxylic acid]	275
Cc1nc(-c2nnn(C)c2CNC(=O)N(C)[C@H](C)c2ccccc2)ccc1O[C@H]1CCC[C@H](C(=O)O)C1 [Example 131, (1S,3S)-3-((2-methyl-6-(1-methyl-5-((3-methyl-3-((R)-1-phenylethyl)ureido)methyl)-1H-1,2,3-triazol-4-yl)pyridin-3-yl)oxy)cyclohexane-1-carboxylic acid]	217
Cc1nc(-c2nnn(C)c2CNC(=O)N(C)[C@@H](C)c2ccccc2)ccc1O[C@H]1CCC[C@H](C(=O)O)C1 [Example 132, (1S,3S)-3-((2-methyl-6-(1-methyl-5-((3-methyl-3-((S)-1-phenylethyl)ureido)methyl)-1H-1,2,3-triazol-4-yl)pyridin-3-yl)oxy)cyclohexane-1-carboxylic acid]	276
Cc1nc(-c2nnn(C)c2CNC(=O)N(C)C(C)(C)C)ccc1O[C@H]1CCC[C@H](C(=O)O)C1 [Example 133, (1S,3S)-3-((6-(5-((3-(tert-butyl)-3-methylureido)methyl)-1-methyl-1H-1,2,3-triazol-4-yl)-2-methylpyridin-3-yl)oxy)cyclohexane-1-carboxylic acid]	1090
Cc1nc(-c2nnn(C)c2CNC(=O)N(C)C(C)C)ccc1O[C@H]1CCC[C@H](C(=O)O)C1 [Example 134, (1S,3S)-3-((6-(5-((3-isopropyl-3-methylureido)methyl)-1-methyl-1H-1,2,3-triazol-4-yl)-2-methylpyridin-3-yl)oxy)cyclohexane-1-carboxylic acid]	519
Cc1nc(-c2nnn(C)c2NC(=O)NCc2ccccc2)ccc1O[C@H]1CCC[C@H](C(=O)O)C1 [Example 135, (1S,3S)-3-((6-(5-(3-benzylureido)-1-methyl-1H-1,2,3-triazol-4-yl)-2-methylpyridin-3-yl)oxy)cyclohexane-1-carboxylic acid]	329
Cc1nc(-c2nnn(C)c2NC(=O)N[C@H](C)c2ccccc2)ccc1O[C@H]1CCC[C@H](C(=O)O)C1 [Example 136, (1S,3S)-3-((2-methyl-6-(1-methyl-5-(3-((R)-1-phenylethyl)ureido)-1H-1,2,3-triazol-4-yl)pyridin-3-yl)oxy) cyclohexane-1-carboxylic acid]	103
Cc1nc(-c2nnn(C)c2CNS(=O)(=O)N(C)CC2CCCC2)ccc1O[C@H]1CCC[C@H](C(=O)O)C1 [Example 137, (1S,3S)-3-((6-(5-(((N-(cyclopentylmethyl)-N-methylsulfamoyl)amino)methyl)-1-methyl-1H-1,2,3-triazol-4-yl)-2-methylpyridin-3-yl)oxy)cyclohexane-1-carboxylicacid]	167
CCCCN(C)S(=O)(=O)NCc1c(-c2ccc(O[C@H]3CCC[C@H](C(=O)O)C3)c(C)n2)nnn1C [Example 138, (1S,3S)-3-((6-(5-(((N-butyl-N-methylsulfamoyl)amino)methyl)-1-methyl-1H-1,2,3-triazol-4-yl)-2-methylpyridin-3-yl)oxy)cyclohexane-1-carboxylic acid]	449
Cc1nc(-c2nnn(C)c2CNS(=O)(=O)N(C)Cc2ccccc2)ccc1O[C@H]1CCC[C@H](C(=O)O)C1 [Example 139, (1S,3S)-3-((6-(5-(((N-benzyl-N-methylsulfamoyl)amino)methyl)-1-methyl-1H-1,2,3-triazol-4-yl)-2-methylpyridin-3-yl)oxy)cyclohexane-1-carboxylic acid]	313
CCCC(C)OC(=O)Nc1c(-c2ccc(O[C@H]3CCC[C@H](C(=O)O)C3)c(C)n2)nnn1C (stereo partly drawn) [Example 140, (1S,3S)-3-((2-methyl-6-(1-methyl-5-(((pentan-2-yloxy)carbonyl)amino)-1H-1,2,3-triazol-4-yl)pyridin-3-yl)oxy)cyclohexane-1-carboxylic acid]	29
Cc1nc(-c2nnn(C)c2NC(=O)OC2CCCCC2)ccc1O[C@H]1CCC[C@H](C(=O)O)C1 [Example 141, (1S,3S)-3-((6-(5-(((cyclohexyloxy)carbonyl)amino)-1-methyl-1H-1,2,3-triazol-4-yl)-2-methylpyridin-3-yl)oxy)cyclohexane-1-carboxylic acid]	78
CCC(CC)OC(=O)Nc1c(-c2ccc(O[C@H]3CCC[C@H](C(=O)O)C3)c(C)n2)nnn1C [Example 142, (1S,3S)-3-((2-methyl-6-(1-methyl-5-(((pentan-3-yloxy)carbonyl)amino)-1H-1,2,3-triazol-4-yl)pyridin-3-yl)oxy)cyclohexane-1-carboxylic acid]	30
Cc1nc(-c2nnn(C)c2NC(=O)OCC(C)F)ccc1O[C@H]1CCC[C@H](C(=O)O)C1 (stereo partly drawn) [Example 143, (1S,3S)-3-((6-(5-(((2-fluoropropoxy)carbonyl)amino)-1-methyl-1H-1,2,3-triazol-4-yl)-2-methylpyridin-3-yl)oxy)cyclohexane-1-carboxylic acid]	478
Cc1nc(-c2nnn(C)c2NC(=O)OCCCF)ccc1O[C@H]1CCC[C@H](C(=O)O)C1 [Example 144, (1S,3S)-3-((6-(5-(((3-fluoropropoxy)carbonyl)amino)-1-methyl-1H-1,2,3-triazol-4-yl)-2-methylpyridin-3-yl)oxy)cyclohexane-1-carboxylic acid]	254
Cc1nc(-c2nnn(C)c2NC(=O)OCCC(F)(F)F)ccc1O[C@H]1CCC[C@H](C(=O)O)C1 [Example 145, (1S,3S)-3-((2-methyl-6-(1-methyl-5-(((3,3,3-trifluoropropoxy)carbonyl)amino)-1H-1,2,3-triazol-4-yl)pyridin-3-yl)oxy)cyclohexane-1-carboxylic acid]	43
